Measurements reported in patent EP3635128B1, “CONTINUOUS SPECTROMETRIC ASSAYS FOR MEASURING MEPRIN ACTIVITY USING AN AUXILIARY ENZYME” (Vivoryon Therapeutics AG, priority 2017, dated 2018).
pKi: −log10 of the molar value. Like-named read-outs stand apart in the source and are kept apart here. Peptide text beside a SMILES is read from it. * marks the point of attachment. pNA = O=[N+]([O-])c1ccc(N*)cc1; AMC = Cc1cc(=O)oc2cc(N*)ccc12

Experiments:
h-meprin β [1] = biological target: T1, h-meprin β (Homo sapiens, UniProt Q16820); test: coupled continuous spectrophotometric assay with auxiliary enzyme PtP and chromogenic pNA substrates; format: biochemical; parameters: His6 (N); made in house; host or cells: Pichia pastoris strain X33; settings: for Kcat / Kcat/KM (s^-1M^-1) / Km: hydrolysis of pNA substrate by meprin β, means ± S.D.
T1 sequence (Q16820 62-701): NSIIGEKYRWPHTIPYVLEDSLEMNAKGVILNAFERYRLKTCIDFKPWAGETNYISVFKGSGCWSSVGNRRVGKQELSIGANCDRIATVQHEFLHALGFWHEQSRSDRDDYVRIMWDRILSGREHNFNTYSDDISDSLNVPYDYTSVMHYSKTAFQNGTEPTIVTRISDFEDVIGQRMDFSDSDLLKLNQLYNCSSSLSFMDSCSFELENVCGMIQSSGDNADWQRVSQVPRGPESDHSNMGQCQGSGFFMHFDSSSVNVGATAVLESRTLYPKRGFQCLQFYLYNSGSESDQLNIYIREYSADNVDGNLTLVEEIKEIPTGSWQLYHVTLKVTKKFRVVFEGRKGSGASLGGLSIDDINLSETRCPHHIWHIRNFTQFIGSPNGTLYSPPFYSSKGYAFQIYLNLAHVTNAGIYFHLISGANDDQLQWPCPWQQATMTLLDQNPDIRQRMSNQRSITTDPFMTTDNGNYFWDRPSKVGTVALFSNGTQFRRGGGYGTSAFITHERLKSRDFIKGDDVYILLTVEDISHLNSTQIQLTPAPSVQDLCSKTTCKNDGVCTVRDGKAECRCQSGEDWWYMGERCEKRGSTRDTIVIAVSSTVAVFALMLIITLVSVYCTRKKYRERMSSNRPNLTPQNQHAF
Procedure: (§1) The enzyme assay consisted of prolyl tripeptidyl aminopeptidase from Porphyromonas gingivalis, an appropriate amount of human h-meprin β or α and the chromogenic substrate KKGYVADAP-pNA (stock solution in assay buffer) in a final volume of 0.25 ml h-meprin β assay buffer (20 mM Tris-HCI; pH 7.5) or h-meprin α assay buffer (20 mM HEPES, 10 mM CaCl2, 0,05% Brij; pH 7.4). After 10 minutes preincubation, the reaction was started by addition of the substrate. Subsequently, absorption was measured at 405 nm for 20 minutes with the Tecan Genios Pro Reader (Tecan) at 30°C. PtP activity was determined using an absorption coefficient of 5717 mol/l, which was obtained from a standard curve of p-nitroaniline under assay conditions. A molecular mass of 79500 Da was used to calculate the Kcat value. Prolyl tripeptidyl aminopeptidase activity was measured utilizing the substrate DAP-pNA. In order to maintain conditions identical to those used in the h-meprin β assay, samples (250 µl) contained a final concentration of 0.2% (v/v) dimethyl sulfoxide. One unit is defined as the amount of enzyme that hydrolyses 1 µmol DAP-pNA per minute under the conditions described. The specific activity of the enzyme preparation was 7 units/mg.
(§2) In the first reaction of the substrate conversion, KKGYVADAP-pNA is cleaved to DAP-pNA by meprin α or β. The second reaction, the release of p-nitroaniline by PtP can be measured in this assay and correlates to the amount of released DAP-pNA by meprin. Based on these terms, a rate equation for irreversible coupled enzyme assays was first described by McClure, giving the opportunity of calculating the required amount of an auxiliary enzyme to minimize the time to reach steady-state conditions (McClure, W. R., Biochemistry. 1969, 8 (7), 2782-2786; Schilling, S., Hoffmann, T., Wermann, M., Heiser, U., Wasternack, C., Demuth, H.-U., Analytical biochemistry. 2002, 303 (1), 49-56, 10.1006/abio.2001.5560). The amount of auxiliary enzyme was calculated as follows (Eq. 1): V2 = −Km2 × ln(1−[DAP−pNA]t/[DAP−pNA]ss)/t. [formula]

h-meprin β [2] = biological target: T1, h-meprin β; test: coupled continuous fluorometric assay with auxiliary enzyme PtP and fluorogenic AMC substrates; format: biochemical; parameters: His6 (N); made in house; host or cells: Pichia pastoris strain X33
Procedure: as §1
Conversion of the fluorogenic substrate KKGYVADAP-AMC by PtP and h-meprin β was analyzed according to assay conditions as described for the chromogenic substrate. Fluorescence was measured at excitation/emission wavelengths of 380/460 nm. The fluorescence coefficient of 8.5×10^8 mol/l for DAP-AMC was calculated from a standard curve of 7-Amino-4-methylcoumarin under assay conditions.

h-meprin α [3] = biological target: T2, h-meprin α (Homo sapiens, UniProt Q16819); test: coupled continuous spectrophotometric assay with auxiliary enzyme PtP and chromogenic substrate KKGYVADAP-pNA; format: biochemical
T2 construct: His-tag (N); made in house; host or cells: Drosophila melanogaster S2 cells, stably transfected (pMT/BiP/V5-His C), protein harvested from the culture medium
T2 sequence (Q16819 66-746): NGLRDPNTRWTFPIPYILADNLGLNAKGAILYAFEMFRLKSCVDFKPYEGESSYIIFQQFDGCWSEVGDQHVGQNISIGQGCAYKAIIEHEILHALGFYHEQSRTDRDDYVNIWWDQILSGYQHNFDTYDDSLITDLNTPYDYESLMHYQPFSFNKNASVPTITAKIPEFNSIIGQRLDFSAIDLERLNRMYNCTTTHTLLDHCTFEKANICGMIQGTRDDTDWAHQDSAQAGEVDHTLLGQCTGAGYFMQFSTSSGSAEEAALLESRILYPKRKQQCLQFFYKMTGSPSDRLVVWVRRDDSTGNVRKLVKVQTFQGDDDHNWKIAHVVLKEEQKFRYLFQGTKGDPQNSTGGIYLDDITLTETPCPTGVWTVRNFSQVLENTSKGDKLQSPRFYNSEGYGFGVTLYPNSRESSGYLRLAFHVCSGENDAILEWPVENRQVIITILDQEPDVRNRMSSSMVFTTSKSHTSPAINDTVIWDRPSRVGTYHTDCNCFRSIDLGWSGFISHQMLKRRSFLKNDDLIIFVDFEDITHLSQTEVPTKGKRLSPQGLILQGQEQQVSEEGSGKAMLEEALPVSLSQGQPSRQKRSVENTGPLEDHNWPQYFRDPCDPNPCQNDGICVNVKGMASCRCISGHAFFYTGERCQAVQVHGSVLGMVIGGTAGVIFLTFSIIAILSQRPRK
Procedure: as §1, §2

h-meprin α [4] = biological target: T2, h-meprin α; test: non-coupled assay with internally quenched fluorogenic substrate; format: biochemical; settings: fluorogenic substrate Abz-YVADAPK(Dpn)G-OH; unpublished data
h-meprin β [5] = biological target: T1, h-meprin β; test: coupled continuous spectrophotometric assay with auxiliary enzyme PtP and chromogenic pNA substrates; format: biochemical; parameters: His6 (N, cleaved yes); made in house; host or cells: Pichia pastoris X33 (pPICZαC), protein harvested from the fermenter supernatant
Procedure: as §1, §2

h-meprin β [6] = biological target: T1, h-meprin β; parameters: His6 (N, cleaved yes); made in house; host or cells: Pichia pastoris X33 (pPICZαC), protein harvested from the fermenter supernatant; settings: fluorogenic substrate Abz-YVAEAPK(Dpn)G-OH; from Schlenzig et al. 2015; cited from earlier work
h-meprin β [7] = biological target: T1, h-meprin β; parameters: His6 (N); made in house; host or cells: Pichia pastoris strain X33; settings: cited from earlier work; for substrate inhibition at concentrations above: internally quenched substrate, meprin β
[8] = hydrolysis of AMC substrate by meprin β, means ± S.D.
[9] = Dixon plot, four substrate concentrations of KKGYVADAP-pNA
[10] = chromogenic substrate KKGYVADAP-pNA, coupled continuous assay, means ± S.D.
[11] = substrate KKGYVADAP-pNA, six inhibitor and four substrate concentrations
[12] = hydrolysis of internally quenched substrate by meprin β, from Schlenzig et al. 2015

In the case of CC(=O)N[C@@H](CCCCN)C(=O)N[C@@H](CCCCN)C(=O)NCC(=O)N[C@@H](Cc1ccc(O)cc1)C(=O)N[C@H](C(=O)N[C@@H](C)C(=O)N[C@@H](CC(=O)O)C(=O)N[C@@H](C)C(=O)N1CCC[C@H]1C(=O)Nc1ccc([N+](=O)[O-])cc1)C(C)C [Ac-KKGYVADAP-pNA] (Ac-KKGYVADAP-pNA), the “Kcat” value (h-meprin β [1]) was 20.0 ± 3.5 s⁻¹, the “Kcat/KM (s^-1M^-1)” value (h-meprin β [1]) was 6.4x10^4 ± 2.5x10^4 s^-1M^-1 and the Km (h-meprin β [1]) was 360 µM.
In the case of CC(=O)N[C@@H](CCCCN)C(=O)N[C@@H](CCCCN)C(=O)NCC(=O)N[C@@H](Cc1ccc(O)cc1)C(=O)N[C@H](C(=O)N[C@@H](C)C(=O)N[C@@H](CC(=O)O)C(=O)N[C@@H](C)C(=O)N1CCC[C@H]1C(=O)Nc1ccc2c(C)cc(=O)oc2c1)C(C)C [Ac-KKGYVADAP-AMC] (Ac-KKGYVADAP-{AMC}), the “Kcat” value (h-meprin β [2]; [8]) was 6.3 ± 1 s⁻¹, the “Kcat/KM (s^-1M^-1)” value (h-meprin β [2]; [8]) was 10.0×10^4 ± 1.4×10^4 s^-1M^-1 and the Km (h-meprin β [2]; [8]) was 64 µM.
In the case of CCCCC[C@H](CC(=O)NO)C(=O)N[C@H](C(=O)N1CCC[C@H]1CO)C(C)C [actinonin], the mode of inhibition (h-meprin α [3]; [9]) was “competitive”, the IC50 (h-meprin α [3]; [10]) was 12 nM and the pKi (h-meprin α [3]; [11]) was 8.49. For the same compound, the IC50 (h-meprin α [4]) was 9.6 nM, the mode of inhibition (h-meprin β [5]; [9]) was “competitive” and the IC50 (h-meprin β [5]; [10]) was 760 nM. The pKi (h-meprin β [5]; [11]) was 6.57 and the IC50 (h-meprin β [6]) was 440 nM.
In the case of Abz-MGWMDEIDK(Dnp)SG-OH [OCK+], the “substrate inhibition at concentrations above” value (h-meprin β [7]) is listed as “above 40 µM”.
For Abz-YVAEAPK(Dpn)G-OH, the “Kcat” value (h-meprin β [7]; [12]) is listed as 35.0 ± 2.5 s⁻¹, the “Kcat/KM (s^-1M^-1)” value (h-meprin β [7]; [12]) is listed as 129.0×10^4 ± 3.0×10^4 s^-1M^-1 and the Km (h-meprin β [7]; [12]) is listed as 27 µM. The “substrate inhibition at concentrations above” value (h-meprin β [7]) was “above 100 µM”.
For Cc1cc(=O)oc2cc(NC(=O)[C@@H]3CCCN3C(=O)[C@H](C)NC(=O)[C@H](CC(=O)O)NC(=O)[C@H](C)NC(=O)[C@@H](NC(=O)[C@H](Cc3ccc(O)cc3)NC(=O)CNC(=O)[C@H](CCCCN)NC(=O)[C@@H](N)CCCCN)C(C)C)ccc12 [KKGYVADAP-AMC, H-Lys-Lys-Gly-Tyr-Val-Ala-Asp-Ala-Pro-AMC] (H-KKGYVADAP-{AMC}), the substrate inhibition (h-meprin β [2]; at concentrations up to 2 mM) was “no inhibitory effect”, the “Kcat (s^-1)” value (h-meprin β [2]; [8]) was 4.3 ± 6.1×10^-1 s^-1 and the “Kcat/KM (s^-1M^-1)” value (h-meprin β [2]; [8]) was 6.0×10^4 ± 1.6×10^4 s^-1M^-1. The Km (h-meprin β [2]; [8]) was 74 µM.
With CC(C)[C@H](NC(=O)[C@H](Cc1ccc(O)cc1)NC(=O)CNC(=O)[C@H](CCCCN)NC(=O)[C@@H](N)CCCCN)C(=O)N[C@@H](C)C(=O)N[C@@H](CC(=O)O)C(=O)N[C@@H](C)C(=O)N1CCC[C@H]1C(=O)Nc1ccc([N+](=O)[O-])cc1 [KKGYVADAP-pNA, H-Lys-Lys-Gly-Tyr-Val-Ala-Asp-Ala-Pro-pNA] (H-KKGYVADAP-pNA) the substrate inhibition (h-meprin β [1]; at concentrations up to 2 mM) was “no inhibitory effect”, the “Kcat” value (h-meprin β [1]) was 20 ± 4.1 s⁻¹ and the “Kcat/KM (s^-1M^-1)” value (h-meprin β [1]) was 11.0×10^4 ± 4.8×10^3 s^-1M^-1. It also gave a Km (h-meprin β [1]) of 180 µM.
For CC(=O)N[C@@H](CCCNC(=N)N)C(=O)NCC(=O)N[C@@H](CCCNC(=N)N)C(=O)NCC(=O)N[C@@H](Cc1ccc(O)cc1)C(=O)N[C@H](C(=O)N[C@@H](C)C(=O)N[C@@H](CC(=O)O)C(=O)N[C@@H](C)C(=O)N1CCC[C@H]1C(=O)Nc1ccc([N+](=O)[O-])cc1)C(C)C [Ac-RGRGYVADAP-pNA] (Ac-RGRGYVADAP-pNA), the “Kcat” value (h-meprin β [1]) was 19.9 ± 10.2 s⁻¹, the “Kcat/KM (s^-1M^-1)” value (h-meprin β [1]) was 15.0×10^4±1.1×10^5 s^-1M^-1 and the Km (h-meprin β [1]) was 140 µM.
